According to patent US10130598B2, “Methods and compositions for administration of 3-halopyruvate and related compounds for the treatment of cancer” (The Johns Hopkins University, priority 2008, dated 2018):

How the values were obtained:
Format in all cases: cell-based
H1299 cells = assay: Trypan blue viability assay, H1299
Excerpt: (§1) The non-small cell lung cancer (NSCLC) cell line NCI-H1299, the breast cancer cell lines MCF7 and MDA MB 231 and the Hep3B, Hep2G and SK-Hep1 cells were obtained from the American Type Culture Collection (ATCC) (Manassas, Va., USA) and maintained as a monolayer culture in Eagle's minimum essential medium (MEM, Invitrogen, Gaithersburg, Md., USA) supplemented with 10% fetal bovine serum at 37 C and 5% CO2. All treatments were done in triplicate samples on 96-well plates. VX2 cells were maintained as described in Geschwind et al., Cancer Res., 62:3909-3913 (2002).
The efficacy of 3-BrPA in the treatment of lung cancer cells was tested using the non-small cell lung cancer (NSCLC) cell line NCI-H1299. As described above, the cell line was grown as a monolayer in MEM (Invitrogen) supplemented with 10% fetal bovine serum (HyClone) at 37 C.° and 5% CO2, and all treatments were done in triplicate samples on 96-well plates.
The EC50 of 3-BrPA for H1299 cells lies between 0.08 and 0.09 mM. […] Therefore, considering that oral administration of 3-BrPA buffered in NaHCO3 is effective in prolonging survival in liver cancer models (Example 2), it is probable that oral administration of 3-BrPA buffered in NaHCO3 would also be effective in the treatment of lung cancer.

SK-Hep 1 cells = assay: ATP dependent luminescence cell viability assay, SK-Hep1
Excerpt: as §1
Cytotoxicity of 3-BrPA was evaluated by the IC50 values, representing the drug concentration which depletes ATP by 50% compared to non-treated control. On day 1, cells were seeded into 96-well plates in a volume of 100 μl per well. On day 2, the medium of all wells was removed and an aliquot of 100 μl of media having serial dilutions of 3-BrPA in PBS, NaHCO3, NaOH, KOH and KHCO3 was added to the appropriate well. […] Briefly, 100 μl assay reagent was added to each well and mixed at room temperature for 2 min to develop luminescent signal. The luminescence intensity (cps) from each sample was determined with a spectrometer (Model Victor III, Perkin Elmer, Mass.). […]
The effects on cell viability and cellular metabolism of 3-BrPA on Hep3B and VX2 cells were examined using luminescence ATP assays, as described above. […]

[1] = ATP luminescent assay of 3-BrPA dissolved in alternative buffers
Experimental: Cytotoxicity of 3-BrPA was evaluated by the IC50 values, representing the drug concentration which depletes ATP by 50% compared to non-treated control. On day 1, cells were seeded into 96-well plates in a volume of 100 μl per well. On day 2, the medium of all wells was removed and an aliquot of 100 μl of media having serial dilutions of 3-BrPA in PBS, NaHCO3, NaOH, KOH and KHCO3 was added to the appropriate well. After 24 h of drug exposure cytotoxic effects of 3-BrPA were monitored by cellular ATP level using CellTiter-Glo™ assay reagents from Promega Corp (Madison, Wis.). Briefly, 100 μl assay reagent was added to each well and mixed at room temperature for 2 min to develop luminescent signal. The luminescence intensity (cps) from each sample was determined with a spectrometer (Model Victor III, Perkin Elmer, Mass.). Relative luminescence was calculated in proportion to the numbers of living cells per sample well. The results are expressed as the mean of three independent experiments. The intracellular ATP contents were calculated and normalized by equal cell number and expressed as the percentage of the control cells. The IC50 values were estimated graphically from dose-response plots.
Based on the results described in Example 1, it was concluded that 10 mg of 3-BrPA is the maximum tolerated dose (MTD) if dissolved in 2.75 ml of PBS. […]

[2] = test system: Hep3B, HepG2, SK-Hep1 and VX2 cells; assay: Active caspase-3 western blot; details: all four cell lines; 100, 150, 200 μM
Experimental: The apoptosis of 3-BrPA treated cells was evaluated using Annexin V staining and the formation of active caspase-3. Cells treated with 3-BrPA were stained with anti-Annexin V and analyzed by flow cytometry as well as fluorescent microscopy. Flow cytometry was performed using a Becton-Dickinson FACSCalibur. The gating was done based on unstained control cells, Annexin V—PE stained and 7-AAD stained control cells. For fluorescent microscopy, Annexin V staining was performed using Annexin V staining Microscopy kit (BD Biosciences, USA) according to the protocol recommended by the manufacturer. In brief, cells grown in chambered slides were treated with either 3BrPA or the vehicle, washed once with ice-cold PBS followed by two washes with binding buffer, at the end of the treatment period. Cells were then incubated with the FITC-conjugated Annexin V fluorescent antibody for 15 min followed by a gentle wash. The cells were kept in binding buffer and images were observed captured using a Zeiss Axiovert 200 Microscope (Carl Zeiss Microimaging Inc., USA). Active caspase-3, an apoptotic marker, was identified by western blot analysis. Lysates prepared from equal numbers of cells treated with different concentrations of 3BrPA were subjected to SDS-PAGE electrophoresis and immunoblotting against active (cleaved) caspase-3. […]

For O=C(O)C(=O)CBr [3-BrPA, 3-bromopyruvate], the Cells died (H1299 cells; 0.1 mM, within 3 hours) was “more than 80%”, the Cell death (H1299 cells; 0.2 mM) was 100% and the “EC50 compared with EC50 of 3-BrPA for VX2 liver cancer cells” value (H1299 cells; H1299) was “lower”. For the same compound, the “Viability (trypan blue)” value (H1299 cells; H1299) was “dose and time dependent decrease in viability”, the “Level of ATP” value (SK-Hep 1 cells; SK-Hep1, 3, 24, 48 hours) was “dose and time dependent decrease” and the IC50 (SK-Hep 1 cells; SK-Hep 1, at 48 hours, read-out: IC50 (ATP depletion)) was 125 µM. For the same compound, the “IC50 value compared to 3-BrPA dissolved in PBS” value ([1]; dissolved in NaHCO3) was “did not show a significantly different in IC50 value”, the “IC50 value compared to 3-BrPA dissolved in PBS” value ([1]; other buffers tested (NaOH, KOH and KHCO3)) was “significantly higher IC50 values” and the “Caspase-3 activation (immunoblot)” value [2] was “dose dependent increase”.
